Assay results from PubChem BioAssay AID330 (DTP/NCI, 2004).
Values joined by “and” are separate entries in the source; they are usually repeats but may differ in a detail not shown here. Identical values can stand only once. Inconclusive results and toxic doses are left out. How the source made its calls: active means survival T/C of 150% or more; inactive means T/C below 125% in these data.

Test system: P388 leukemia ip, CD2F1 mice, survival T/C
Experiment: NCI In Vivo Anticancer Drug Screen. Data for tumor model P388 Leukemia (intraperitoneal) in CD2F1 (CDF1) mice
Conditions: endpoint: median survival time, higher = longer survival
How it was run: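 Mice carrying the transplanted tumor received test compound or vehicle. Survival was recorded in each group, and the value is the treated-group measurement divided by that of the vehicle-treated control group.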

[1] = dose: 25.0 mg/kg/injection, schedule: Q04DX003 (ip), vehicle: saline with Tween-80
[2] = dose: 50.0 mg/kg/injection, schedule: Q04DX003 (ip), vehicle: saline with Tween-80
[3] = dose: 100.0 mg/kg/injection, schedule: Q04DX003 (ip), vehicle: saline with Tween-80
[4] = dose: 200.0 mg/kg/injection, schedule: Q04DX003 (ip), vehicle: saline with Tween-80
[5] = dose: 6.25 mg/kg/injection, schedule: Q01DX009 (ip), vehicle: saline
[6] = dose: 12.5 mg/kg/injection, schedule: Q01DX009 (ip), vehicle: saline
[7] = dose: 50.0 mg/kg/injection, schedule: Q01DX009 (ip), vehicle: saline
[8] = dose: 25.0 mg/kg/injection, schedule: Q01DX009 (ip), vehicle: Klucel (hydroxypropylcellulose) (HPC)
[9] = dose: 12.5 mg/kg/injection, schedule: Q01DX009 (ip), vehicle: saline with Tween-80
[10] = dose: 100.0 mg/kg/injection, schedule: Q04DX002 (ip), vehicle: saline with Tween-80
[11] = dose: 200.0 mg/kg/injection, schedule: Q04DX002 (ip), vehicle: saline with Tween-80
[12] = dose: 400.0 mg/kg/injection, schedule: Q04DX002 (ip), vehicle: saline with Tween-80
[13] = dose: 100.0 mg/kg/injection, schedule: Q04DX002 (ip), vehicle: Klucel (hydroxypropylcellulose) (HPC)
[14] = dose: 200.0 mg/kg/injection, schedule: Q04DX002 (ip), vehicle: Klucel (hydroxypropylcellulose) (HPC)
[15] = dose: 100.0 mg/kg/injection, schedule: Q01DX009 (ip), vehicle: saline
[16] = dose: 100.0 mg/kg/injection, schedule: Q04DX003 (ip), vehicle: Klucel (hydroxypropylcellulose) (HPC)
[17] = dose: 200.0 mg/kg/injection, schedule: Q01DX009 (ip), vehicle: saline
[18] = dose: 200.0 mg/kg/injection, schedule: Q04DX003 (ip), vehicle: Klucel (hydroxypropylcellulose) (HPC)

Measured: T/C

NC(=S)N/N=C/c1nc2ccccc2[nH]1
inactive: [1] 100 % of control | [2] 100 % of control | [3] 106 % of control | [4] 91 % of control

O=c1oc2cc(N=Cc3ccccc3Cl)ccc2c2ccccc12
inactive: [5] 90 % of control | [6] 90 % of control | dose: 25.0 mg/kg/injection, schedule: Q01DX009 (ip), vehicle: saline 91 % of control | dose: 50.0 mg/kg/injection, schedule: Q01DX009 (ip), vehicle: saline with Tween-80 98 % of control | [7] 91 % of control | dose: 100.0 mg/kg/injection, schedule: Q01DX009 (ip), vehicle: saline with Tween-80 114 % of control | dose: 200.0 mg/kg/injection, schedule: Q01DX009 (ip), vehicle: saline with Tween-80 113 % of control | dose: 400.0 mg/kg/injection, schedule: Q01DX009 (ip), vehicle: saline with Tween-80 87 % of control

CCCCCCCCCCCC(O)CCCC(O)CC(O)CC(O)CC1CC=CC(=O)O1 (stereo not drawn)
inactive: dose: 12.5 mg/kg/injection, schedule: Q01DX009 (ip), vehicle: Klucel (hydroxypropylcellulose) (HPC) 106 % of control | [8] 103 % of control | dose: 50.0 mg/kg/injection, schedule: Q01DX009 (ip), vehicle: Klucel (hydroxypropylcellulose) (HPC) 112 % of control

[Cu+2].[NH-]CC1CCCC[N-]1.[NH-]CC1CCCC[N-]1.[O-][Cl+3]([O-])([O-])O (stereo not drawn)
inactive: dose: 6.25 mg/kg/injection, schedule: Q01DX009 (ip), vehicle: saline with Tween-80 103 % of control | [9] 100 % of control and 96 % of control | dose: 25.0 mg/kg/injection, schedule: Q01DX009 (ip), vehicle: saline with Tween-80 107 % of control

CC(C)C(=O)NCc1ccccc1Sc1ccccc1CNC(=O)C(C)C
inactive: [10] 90 % of control | [11] 90 % of control | [12] 91 % of control

CCOc1ccccc1NC(=O)NCC(=O)NNC(=O)Nc1ccc(Cl)c([N+](=O)[O-])c1
inactive: dose: 60.0 mg/kg/injection, schedule: Q01DX005 (ip), vehicle: saline with Tween-80 93 % of control | dose: 120.0 mg/kg/injection, schedule: Q01DX005 (ip), vehicle: saline with Tween-80 98 % of control | dose: 240.0 mg/kg/injection, schedule: Q01DX005 (ip), vehicle: saline with Tween-80 92 % of control

Nc1ccc(S(=O)(=O)n2c(=O)oc3ccc(Cl)cc32)cc1
inactive: dose: 50.0 mg/kg/injection, schedule: Q04DX002 (ip), vehicle: Klucel (hydroxypropylcellulose) (HPC) 97 % of control | [13] 97 % of control | [14] 90 % of control

Cn1c(=O)[nH]c2c(c1=O)CCCN2
inactive: [13] 104 % of control | [14] 98 % of control | dose: 400.0 mg/kg/injection, schedule: Q04DX002 (ip), vehicle: Klucel (hydroxypropylcellulose) (HPC) 98 % of control

N#Cc1cnn(-c2cc(Cl)c(Cl)cc2Cl)c1N
inactive: [3] 99 % of control | [4] 103 % of control | dose: 400.0 mg/kg/injection, schedule: Q04DX003 (ip), vehicle: saline with Tween-80 111 % of control

CCO/C(C)=N\O
inactive: dose: 25.0 mg/kg/injection, schedule: Q04DX003 (ip), vehicle: Klucel (hydroxypropylcellulose) (HPC) 98 % of control | [7] 103 % of control | dose: 50.0 mg/kg/injection, schedule: Q04DX003 (ip), vehicle: Klucel (hydroxypropylcellulose) (HPC) 98 % of control | [15] 97 % of control | [16] 99 % of control | [17] 101 % of control | [18] 99 % of control

CN1CC2c3ccccc3C(=O)C1(O)c1ccccc12 (stereo not drawn)
inactive: dose: 50.0 mg/kg/injection, schedule: Q01DX005 (ip), vehicle: saline with Tween-80 103 % of control | dose: 100.0 mg/kg/injection, schedule: Q01DX005 (ip), vehicle: saline with Tween-80 103 % of control | dose: 200.0 mg/kg/injection, schedule: Q01DX005 (ip), vehicle: saline with Tween-80 103 % of control

Nc1ccccc1SSc1ccccc1C(=O)O
inactive: dose: 50.0 mg/kg/injection, schedule: Q01DX005 (ip), vehicle: Klucel (hydroxypropylcellulose) (HPC) 112 % of control | dose: 100.0 mg/kg/injection, schedule: Q01DX005 (ip), vehicle: Klucel (hydroxypropylcellulose) (HPC) 112 % of control

Cc1ccc(C2CNC(=S)S2)cc1 (stereo not drawn)
inactive: dose: 50.0 mg/kg/injection, schedule: Q01DX009 (ip), vehicle: DMSO 92 % of control | dose: 100.0 mg/kg/injection, schedule: Q01DX009 (ip), vehicle: DMSO 98 % of control | dose: 200.0 mg/kg/injection, schedule: Q01DX009 (ip), vehicle: DMSO 98 % of control

CSC(=Cc1ccc2cc(Br)ccc2[n+]1C)SC
inactive: dose: 3.12 mg/kg/injection, schedule: Q01DX009 (ip), vehicle: Klucel (hydroxypropylcellulose) (HPC) 110 % of control | dose: 6.25 mg/kg/injection, schedule: Q01DX009 (ip), vehicle: Klucel (hydroxypropylcellulose) (HPC) 117 % of control and 121 % of control | [8] 107 % of control

O=c1c2nccnc2nc2n1CCS2
inactive: [16] 100 % of control | [18] 101 % of control | dose: 400.0 mg/kg/injection, schedule: Q04DX003 (ip), vehicle: Klucel (hydroxypropylcellulose) (HPC) 107 % of control

C/C(=N\NC(N)=Nc1ccc(Cl)cc1)c1ccc2c(c1)Cc1cc(/C(C)=N/NC(N)=Nc3ccc(Cl)cc3)ccc1-2
inactive: dose: 25.0 mg/kg/injection, schedule: Q04DX002 (ip), vehicle: saline with Tween-80 87 % of control | dose: 50.0 mg/kg/injection, schedule: Q04DX002 (ip), vehicle: saline with Tween-80 90 % of control | [10] 97 % of control | [11] 101 % of control | [12] 100 % of control

OC(c1cccnc1)C(CCc1ccccn1)c1ccccn1 (stereo not drawn)
inactive: dose: 100.0 mg/kg/injection, schedule: Q04DX003 (ip), vehicle: saline 102 % of control | dose: 200.0 mg/kg/injection, schedule: Q04DX003 (ip), vehicle: saline 101 % of control | dose: 400.0 mg/kg/injection, schedule: Q04DX003 (ip), vehicle: saline 91 % of control

CC(=O)Oc1cc2c3c(c1)CCCN3CCC2
inactive: dose: 1.25 mg/kg/injection, schedule: Q04DX003 (ip), vehicle: saline with Tween-80 91 % of control | dose: 2.5 mg/kg/injection, schedule: Q04DX003 (ip), vehicle: saline with Tween-80 104 % of control | dose: 5.0 mg/kg/injection, schedule: Q04DX003 (ip), vehicle: saline with Tween-80 100 % of control

O=P(O)(O)OC1C(OP(=O)(O)O)C(OP(=O)(O)O)C(OP(=O)(O)O)C(OP(=O)(O)O)C1OP(=O)(O)O (stereo not drawn)
inactive: [7] 94 % of control | [15] 94 % of control | [17] 102 % of control

Cc1ccc2sc3c(ccc(=O)n3C)c(=O)c2c1
inactive: [10] 115 % of control | [11] 120 % of control

CCCCCCCCP(=O)(N1CC1C)N1CC1C (stereo not drawn)
inactive: dose: 3.13 mg/kg/injection, schedule: Q01DX009 (ip), vehicle: saline 109 % of control | [5] 109 % of control | [9] 122 % of control | [6] 109 % of control | dose: 12.5 mg/kg/injection, schedule: Q04DX003 (ip), vehicle: saline with Tween-80 100 % of control | [1] 95 % of control | [2] 109 % of control | dose: 50.0 mg/kg/injection, schedule: Q04DX003 (ip), vehicle: saline 108 % of control
